Data as given in patent EP0531958A1, “6-Aminoquinolones, their synthesis and their use as antibacterial agents” (MEDIOLANUM FARMACEUTICI S.P.A., priority 1991, dated 1993).
Converted amounts (≈) assume the structure as drawn. Where two headings read alike, the source gives them in different places.

Legend:
Format in all cases: cell-based
[1] = system: Gram +; assay: MIC test, average over the 5 gram-positive test germs; conditions: 24 h
Protocol: (§1) As to the antibacterial activity, there was determined the Least (Minimum) Inhibiting Concentration (MIC), by working according to the following operative conditions.
(§2) There were used suspensions of test germs (5 gram-positive and 15 gram-negative) having a known titre, kept freezed at -80°C and diluted, at the time of use, in peptonized water up to a concentration of 1-2.10⁷ cfu/ml.
(§3) A few mg of the products, according to the invention were weighed sufficient for preparing parent solutions in DMSO + NaOH (1N) containing 2560 µg/ml (64µg/ml/dish). From the thus prepared parent solutions there were prepared 12 serial dilutions (1:2) down to the concentration of 1.25 µg/ml.
(§4) 0.5 ml of the different dilutions of each product were distributed on dishes containing 19.5 ml of agarized medium (TSA), maintained in a fluid state at the temperature of 50°C. After slight stirring, the dishes were made to solidify and dry under hood (laminar flow).
(§5) The MIC tests (Least or "Minimum" Inhibiting Concentration) were performed by using a Steers multiwell inoculator having 36 wells, each containing 200 µl of bacterial suspension.
(§6) After inoculation, the dishes were placed into a thermostat and checked after 24 h of incubation at 35°C.
(§7) The MIC is defined as the lowermost product concentration (µg/ml) inhibiting the visible growth of the microorganisms.

[2] = system: Acinebacter calcoloaceticus OSMPV 1130; assay: MIC test, agar dilution with Steers multiwell inoculator; conditions: TSA dishes, 24 h at 35°C, read-out: Minimum Inhibiting Concentration
Protocol: as §1, §2, §3, §4, §5, §6, §7

[3] = system: Enterobacter cloacae OMNF 1153; assay: as above; conditions: OMNF1153, TSA dishes, 24 h at 35°C, read-out: Minimum Inhibiting Concentration
Protocol: as §1, §2, §3, §4, §5, §6, §7

[4] = system: Enterobacter cloacae OMNF 1174; assay: as above; conditions: OMNF1174, TSA dishes, 24 h at 35°C, read-out: Minimum Inhibiting Concentration
Protocol: as §1, §2, §3, §4, §5, §6, §7

[5] = system: Escherichia coli 120; assay: as above; conditions: TSA dishes, 24 h at 35°C, read-out: Minimum Inhibiting Concentration
Protocol: as §1, §2, §3, §4, §5, §6, §7

[6] = system: Escherichia coli ATCC 8739; assay: as above; conditions: ATCC8739, TSA dishes, 24 h at 35°C, read-out: Minimum Inhibiting Concentration
Protocol: as §1, §2, §3, §4, §5, §6, §7

[7] = system: Escherichia coli CNUR 1; assay: as above; conditions: CNUR1, TSA dishes, 24 h at 35°C, read-out: Minimum Inhibiting Concentration
Protocol: as §1, §2, §3, §4, §5, §6, §7

[8] = system: Escherichia coli CNUR 8; assay: as above; conditions: CNUR8, TSA dishes, 24 h at 35°C, read-out: Minimum Inhibiting Concentration
Protocol: as §1, §2, §3, §4, §5, §6, §7

[9] = system: Escherichia coli ISF 432; assay: as above; conditions: ISF432, TSA dishes, 24 h at 35°C, read-out: Minimum Inhibiting Concentration
Protocol: as §1, §2, §3, §4, §5, §6, §7

[10] = system: Klebsiella pneumoniae ATCC 10031; assay: as above; conditions: ATCC10031, TSA dishes, 24 h at 35°C, read-out: Minimum Inhibiting Concentration
Protocol: as §1, §2, §3, §4, §5, §6, §7

[11] = system: Proteus vulgaris CNUR 6; assay: as above; conditions: CNUR6, TSA dishes, 24 h at 35°C, read-out: Minimum Inhibiting Concentration
Protocol: as §1, §2, §3, §4, §5, §6, §7

[12] = system: Providencia stuardii CNUR 5; assay: as above; conditions: CNUR5, TSA dishes, 24 h at 35°C, read-out: Minimum Inhibiting Concentration
Protocol: as §1, §2, §3, §4, §5, §6, §7

[13] = system: Pseudomonas aeruginosa ATCC 9027; assay: as above; conditions: ATCC9027, TSA dishes, 24 h at 35°C, read-out: Minimum Inhibiting Concentration
Protocol: as §1, §2, §3, §4, §5, §6, §7

[14] = system: Pseudomonas aeruginosa CNUR 2; assay: as above; conditions: CNUR2, TSA dishes, 24 h at 35°C, read-out: Minimum Inhibiting Concentration
Protocol: as §1, §2, §3, §4, §5, §6, §7

[15] = system: Pseudomonas aeruginosa CNUR 4; assay: as above; conditions: CNUR4, TSA dishes, 24 h at 35°C, read-out: Minimum Inhibiting Concentration
Protocol: as §1, §2, §3, §4, §5, §6, §7

[16] = system: Shighella enteritidis; assay: as above; conditions: TSA dishes, 24 h at 35°C, read-out: Minimum Inhibiting Concentration
Protocol: as §1, §2, §3, §4, §5, §6, §7

[17] = system: Staphylococcus aureus ATCC 6538; assay: as above; conditions: ATCC6538, TSA dishes, 24 h at 35°C, read-out: Minimum Inhibiting Concentration
Protocol: as §1, §2, §3, §4, §5, §6, §7

[18] = system: Staphylococcus aureus MPR 5; assay: as above; conditions: MPR5, TSA dishes, 24 h at 35°C, read-out: Minimum Inhibiting Concentration
Protocol: as §1, §2, §3, §4, §5, §6, §7

[19] = system: Staphylococcus epidermidis CPHL A2; assay: as above; conditions: CPHLA2, TSA dishes, 24 h at 35°C, read-out: Minimum Inhibiting Concentration
Protocol: as §1, §2, §3, §4, §5, §6, §7

[20] = system: Staphylococcus epidermidis HCF Berset C.; assay: as above; conditions: TSA dishes, 24 h at 35°C, read-out: Minimum Inhibiting Concentration
Protocol: as §1, §2, §3, §4, §5, §6, §7

[21] = system: Streptococcus facealis LEP Br.; assay: as above; conditions: TSA dishes, 24 h at 35°C, read-out: Minimum Inhibiting Concentration
Protocol: as §1, §2, §3, §4, §5, §6, §7

[22] = system: Gram -; assay: MIC test, average over the 15 gram-negative test germs; conditions: 24 h
Protocol: as §1, §2, §3, §4, §5, §6, §7

[23] = geometrical average of the MIC over the 5 Gram + strains, read-out: Geometrical Average
[24] = geometrical average of the MIC over the 15 Gram - strains, read-out: Geometrical Average
[25] = mean log of the MIC over the 15 Gram - strains, read-out: Log (converted)

Row | Compound | MIC [1, 23] [µg/mL] | MIC ([1]; read-out: Log (converted)) [µg/mL] | MIC [2] [µg/mL] | MIC [3] [µg/mL] | MIC [4] [µg/mL] | MIC [5] [µg/mL] | MIC [6] [µg/mL] | MIC [7] [µg/mL] | MIC [8] [µg/mL] | MIC [9] [µg/mL] | MIC [10] [µg/mL] | MIC [11] [µg/mL] | MIC [12] [µg/mL] | MIC [13] [µg/mL] | MIC [14] [µg/mL] | MIC [15] [µg/mL] | MIC [16] [µg/mL] | MIC [17] [µg/mL] | MIC [18] [µg/mL] | MIC [19] [µg/mL] | other results
1 | CC(C)(C)n1cc(C(=O)O)c(=O)c2cc(N)c(N3CCSCC3)cc21 [Compound 46, 6-amino-1-terbutyl-7-(1-thiomorpholinyl)-1,4-dihydro-4-oxo-quinoline carboxylic acid] | 0.66 | 0.659 (≈ 1.82 µM) | 0.5 (≈ 1.38 µM) | 2 (≈ 5.53 µM) | 2 (≈ 5.53 µM) | 0.25 (≈ 0.692 µM) | 0.06 (≈ 0.166 µM) | 1 (≈ 2.77 µM) | 0.25 (≈ 0.692 µM) | 0.03 (≈ 0.083 µM) | 0.03 (≈ 0.083 µM) | 128 (≈ 354 µM) | 4 (≈ 11.1 µM) | 4 (≈ 11.1 µM) | 16 (≈ 44.3 µM) | 128 (≈ 354 µM) | 2 (≈ 5.53 µM) | 0.25 (≈ 0.692 µM) | 0.25 (≈ 0.692 µM) | 0.5 (≈ 1.38 µM) | MIC [20]: 0.5 µg/mL (≈ 1.38 µM); MIC [21]: 8 µg/mL (≈ 22.1 µM); MIC [22, 24]: 1.31 µg/mL (≈ 3.62 µM); MIC [22, 25]: 1.31 µg/mL (≈ 3.62 µM)
2 | CC(C)(C)n1cc(C(=O)O)c(=O)c2cc(N)c(N3CCN(c4ccccn4)CC3)cc21 [Compound 48, 6-amino-1-terbutyl-7-[4-(2-pyridyl)-1-piperazinyl]-1,4-dihydro-4-oxo-quinoline carboxylic acid] | 2 | 2 (≈ 4.74 µM) | 1 (≈ 2.37 µM) | 128 (≈ 304 µM) | 64 (≈ 152 µM) | 16 (≈ 38 µM) | 0.5 (≈ 1.19 µM) | 64 (≈ 152 µM) | 16 (≈ 38 µM) | 0.5 (≈ 1.19 µM) | 0.25 (≈ 0.593 µM) | 128 (≈ 304 µM) | 128 (≈ 304 µM) | 128 (≈ 304 µM) | 128 (≈ 304 µM) | 128 (≈ 304 µM) | 64 (≈ 152 µM) | 1 (≈ 2.37 µM) | 1 (≈ 2.37 µM) | 1 (≈ 2.37 µM) | MIC [20]: 2 µg/mL (≈ 4.74 µM); MIC [21]: 16 µg/mL (≈ 38 µM); MIC [22, 24]: 19.2 µg/mL (≈ 45.7 µM); MIC [22, 25]: 19.2 µg/mL (≈ 45.6 µM)
3 | CN1CCN(c2cc3c(cc2N)c(=O)c(C(=O)O)cn3-c2ccc(F)cc2)CC1 [Compound 50] | 10.6 | 10.5 (≈ 26.6 µM) | 16 (≈ 40.4 µM) | 4 (≈ 10.1 µM) | 4 (≈ 10.1 µM) | 0.5 (≈ 1.26 µM) | 0.25 (≈ 0.631 µM) | 4 (≈ 10.1 µM) | 0.5 (≈ 1.26 µM) | 0.25 (≈ 0.631 µM) | 0.12 (≈ 0.303 µM) | 128 (≈ 323 µM) | 4 (≈ 10.1 µM) | 8 (≈ 20.2 µM) | 32 (≈ 80.7 µM) | 128 (≈ 323 µM) | 4 (≈ 10.1 µM) | 8 (≈ 20.2 µM) | 4 (≈ 10.1 µM) | 8 (≈ 20.2 µM) | MIC [20]: 8 µg/mL (≈ 20.2 µM); MIC [21]: 64 µg/mL (≈ 161 µM); MIC [22, 24]: 3.47 µg/mL (≈ 8.76 µM); MIC [22, 25]: 3.48 µg/mL (≈ 8.77 µM)
4 | Cc1c(N2CCSCC2)c(N)cc2c(=O)c(C(=O)O)cn(C3CC3)c12 [Compound 35] | 0.574 | 0.574 (≈ 1.6 µM) | 1 (≈ 2.78 µM) | 0.5 (≈ 1.39 µM) | 1 (≈ 2.78 µM) | 0.25 (≈ 0.696 µM) | 0.06 (≈ 0.167 µM) | 0.5 (≈ 1.39 µM) | 0.25 (≈ 0.696 µM) | 0.06 (≈ 0.167 µM) | 0.03 (≈ 0.0835 µM) | 64 (≈ 178 µM) | 1 (≈ 2.78 µM) | 4 (≈ 11.1 µM) | 8 (≈ 22.3 µM) | 64 (≈ 178 µM) | 0.5 (≈ 1.39 µM) | 0.25 (≈ 0.696 µM) | 0.25 (≈ 0.696 µM) | 0.5 (≈ 1.39 µM) | MIC [20]: 1 µg/mL (≈ 2.78 µM); MIC [21]: 2 µg/mL (≈ 5.56 µM); MIC [22, 24]: 0.863 µg/mL (≈ 2.4 µM); MIC [22, 25]: 0.863 µg/mL (≈ 2.4 µM)
5 | CN1CCN(c2c(N)c(N)c3c(=O)c(C(=O)O)cn(C4CC4)c3c2F)CC1 [Compound 28] | 3.03 | 3.03 (≈ 8.08 µM) | 2 (≈ 5.33 µM) | 0.25 (≈ 0.666 µM) | 0.12 (≈ 0.32 µM) | 0.12 (≈ 0.32 µM) | 0.03 (≈ 0.0799 µM) | 0.25 (≈ 0.666 µM) | 0.12 (≈ 0.32 µM) | 0.03 (≈ 0.0799 µM) | 0.03 (≈ 0.0799 µM) | 64 (≈ 170 µM) | 2 (≈ 5.33 µM) | 4 (≈ 10.7 µM) | 8 (≈ 21.3 µM) | 64 (≈ 170 µM) | 0.25 (≈ 0.666 µM) | 2 (≈ 5.33 µM) | 2 (≈ 5.33 µM) | 4 (≈ 10.7 µM) | MIC [20]: 4 µg/mL (≈ 10.7 µM); MIC [21]: 4 µg/mL (≈ 10.7 µM); MIC [22, 24]: 0.592 µg/mL (≈ 1.58 µM); MIC [22, 25]: 0.592 µg/mL (≈ 1.58 µM)
6 | CC(C)(C)n1cc(C(=O)O)c(=O)c2cc(N)c(N3CCc4ccccc4C3)cc21 [Compound 47, 6-amino-1-terbutyl-7-[2-(1,2,3,4-tetrahydroisoquinolinyl)]-1,4-dihydro-4-oxo-quinoline carboxylic acid] | 0.871 | 0.871 (≈ 2.22 µM) | 2 (≈ 5.11 µM) | 16 (≈ 40.9 µM) | 8 (≈ 20.4 µM) | 2 (≈ 5.11 µM) | 0.12 (≈ 0.307 µM) | 8 (≈ 20.4 µM) | 2 (≈ 5.11 µM) | 0.12 (≈ 0.307 µM) | 0.12 (≈ 0.307 µM) | 128 (≈ 327 µM) | 4 (≈ 10.2 µM) | 32 (≈ 81.7 µM) | 64 (≈ 163 µM) | 128 (≈ 327 µM) | 8 (≈ 20.4 µM) | 0.25 (≈ 0.639 µM) | 0.5 (≈ 1.28 µM) | 0.5 (≈ 1.28 µM) | MIC [20]: 1 µg/mL (≈ 2.55 µM); MIC [21]: 8 µg/mL (≈ 20.4 µM); MIC [22, 24]: 4.77 µg/mL (≈ 12.2 µM); MIC [22, 25]: 4.78 µg/mL (≈ 12.2 µM)
